# Patent US20240066087A1, “SUTHERLANDIA EXTRACT AND THE USE THEREOF IN THE MANUFACTURE OF A MEDICAMENT” (ACUPHARM INTERNATIONAL PROPRIETARY LIMITED, priority 2020, published 2024)
# Test system: cultured tissue from needle biopsy, Breast DCIS papillary neoplasm
# Test: dose response study with cumulative cell death on cultured patient biopsy tissue (patient 19055)
# Format: cell-based, human
# Settings: in vitro cultured biopsy sample, patient 19055, Breast DCIS papillary neoplasm
# Experimental: Comparative studies were performed using Sutherlandia leaf extract in water (referred to as ACPJL35), Sutherlandia leaf extract in 50% ethanol and water solution (referred to as ACPJL28), and Sutherlandia leaf extract in 90% ethanol and water solution (referred to as ACPJL07). These extracts were compared to a number of known botanical isolates with anti-cancer activity, as well as a number of known anti-cancer drugs, using a dose response design with cumulative cell death as the dependent variable. These studies were conducted on in vitro samples of cultured tissue, taken as biopsy samples from patients as part of a standard culture and testing process done in order to optimise treatment.
# Patient from whom sample was obtained was a person presenting with a diagnosis of Breast DCIS papillary neoplasm. The sample was obtained via needle biopsy, before being cultured.
row,Structure (SMILES),"efficacy assessment from dose response (dose-CR curve), cumulative cell death as dependent variable"
1,COc1cc2c(Oc3ccc4[nH]c(C)cc4c3F)ncnc2cc1OCCCN1CCCC1 [Cediranib],having potential benefit
2,Nc1nc(Cl)nc2c1ncn2[C@@H]1O[C@H](CO)[C@@H](O)[C@@H]1F [Clofarabine],having potential benefit
3,CC(=O)O[C@@]12CO[C@@H]1C[C@H](O)[C@@]1(C)C(=O)[C@H](O)C3=C(C)[C@@H](OC(=O)[C@H](O)[C@@H](NC(=O)OC(C)(C)C)c4ccccc4)C[C@@](O)([C@@H](OC(=O)c4ccccc4)[C@H]21)C3(C)C [Docetaxel],having potential benefit
4,COc1cc2ncnc(Nc3ccc(F)c(Cl)c3)c2cc1OCCCN1CCOCC1 [Gefitinib],having potential benefit
5,O=C1c2c(O)ccc(O)c2C(=O)c2c(NCCNCCO)ccc(NCCNCCO)c21 [Mitoxantrone],having potential benefit
6,COC(=O)c1ccc2c(c1)NC(=O)/C2=C(\Nc1ccc(N(C)C(=O)CN2CCN(C)CC2)cc1)c1ccccc1 [Nintedanib],good efficacy and a positive dose response curve
7,CC(=O)O[C@H]1C(=O)[C@@]2(C)[C@H]([C@H](OC(=O)c3ccccc3)[C@]3(O)C[C@H](OC(=O)[C@H](O)[C@@H](NC(=O)c4ccccc4)c4ccccc4)C(C)=C1C3(C)C)[C@]1(OC(C)=O)CO[C@@H]1C[C@@H]2O [Paclitaxel],having potential benefit
8,CC[C@]1(O)C[C@H]2CN(CCc3c([nH]c4ccccc34)[C@@](C(=O)OC)(c3cc4c(cc3OC)N(C=O)[C@H]3[C@@](O)(C(=O)OC)[C@H](OC(C)=O)[C@]5(CC)C=CCN6CC[C@]43[C@@H]65)C2)C1 [Vincristine],having potential benefit
9,CCC1=C[C@@H]2CN(C1)Cc1c([nH]c3ccccc13)[C@@](C(=O)OC)(c1cc3c(cc1OC)N(C)[C@H]1[C@@](O)(C(=O)OC)[C@H](OC(C)=O)[C@]4(CC)C=CCN5CC[C@]31[C@@H]54)C2 [Vinorelbine],having potential benefit
10,O=C(CCCCCCC(=O)Nc1ccccc1)NO [Vorinostat],having potential benefit
